Paper PMC5920042, “KH176 Safeguards Mitochondrial Diseased Cells from Redox Stress-Induced Cell Death by Interacting with the Thioredoxin System/Peroxiredoxin Enzyme Machinery” (Scientific Reports, 2018)
“And” between values parts separate entries of the source, which are not always exact repeats. Equal values may be shown once. Marks after values point to notes of the source that are not given here.

How the values were obtained:
P4 cell line [1] = test: Cellular ROS assay (DCFH-DA); type: cell-based, human; settings: P4 cells, 24 h compound treatment
Experimental: The cells were then treated for 72 h (or shorter as indicated) with culture medium containing semi-logarithmic dilutions of the test compound. Alternatively, 3 × 10^3 cells/well were seeded when cells were treated for 24 h only. At the end of the incubation period, cells were loaded with 40 µM DCFH-DA (#D6883, Sigma-Aldrich). in M199 without phenol red for 30 min. The excess of the dye was washed with ice-cold M199 without phenol red and the cells were lysed with 100 µl/well of ice-cold 0.2% Triton X-100 in M199 without phenol red after 10 min incubation in ice. Cellular debris was spun down by centrifugation at 2600 g, 5 min, +4 °C and 90 µl/well of cell lysate were transferred to a black 96-wells plate and DCF fluorescence was measured on a scanning microplate reader (BMG FLUOstar Omega; Ex. 480 nm, Em. 520 nm).

[2] = tested on: primary human skin fibroblasts; test: Mitochondrial superoxide detection by mitoSOX oxidation; type: cell-based; settings: 30 min preincubation, no external stimulus; read-out: IC50 mitochondrial superoxide levels (mitoSOX)
Experimental: The cells were seeded at a density of 3 × 10^3 cells/well into 96-wells black plates. After 24 h, the cells were incubated with different amounts of KH176(m) in M199 without phenol red. This medium was used in all subsequent washes and incubations. After 30 min. incubation the cells were washed and subsequently incubated 1 µM mitoSOX (#M36008, ThermoFisher). […] After 10 min incubation the cells were washed twice and incubated for 30 min. to allow the accumulation of oxidized mitoSOX in the mitochondria. […] Wells with cells but without mitoSOX were used for background correction. Experiments were performed at least three times with 3 wells per experiment.

[3] = tested on: primary human skin fibroblasts; test: CumOOH induced lipid peroxidation (bodipy 581/591 C11); type: cell-based; settings: 30 µM cumOOH
Experimental: The cells were seeded at a density of 3 × 10^3 cells/well into 96-wells black plates. After 24 h, the cells were coincubated with 500 nM bodipy 581/591 C11 (#D3861, Thermo Fisher) and different amounts of KH compound in M199 without phenol red. This medium was used in all subsequent washes and incubations. After 30 min. incubation the cells were washed twice and subsequently incubated with 30 μM cumene hydroperoxide (cumOOH). For background subtractions cells with the dye but without cumOOH were used. After 30 minutes incubation and two washes oxidized bodipy 581/591 C11 was quantified on an automated bioimager (BD Pathway 855), by using a 20x objective and Ex. 488/10 nm, Em. FURA/FITC. Total cellular fluorescence per well was normalized on the number of cellular pixels/well and normalized on the incubation with probe and cumOOH but without compound (vehicle set as 100%). Experiments were performed at least three times with 3 wells per experiment.

P4 cell line [4] = test: GSH measurements (GSH-Glo) under BSO; type: cell-based, human; settings: increasing BSO 24 h, 1 µM compound
Experimental: Cells were seeded at a density of 4 × 10^3 cells/well into 96-wells white plates (#655098, Greiner Bio-one). After 24 h the cells were treated with semi-logarithmic dilutions of BSO up to a concentration of 100 µM alone or in co-incubation with a fixed amount of the test compound. 24 h after the treatment, GSH levels were measured with the GSH-Glo™ Glutathione Assay (# V6911, Promega) according to the manufacturer instructions. Luminescence was measured on a scanning microplate reader (BMG FLUOstar Omega).

[5] = Single dose pharmacokinetics and bioavailability study; type: in vivo, male C57BL/6 mice; settings: mouse
Experimental: (§1) Pharmacokinetics and toxicokinetics measurements were performed by the commercial Contract Research Organizations Sai Life Sciences and WuXi AppTec, respectively, according to their standard protocols and in accordance with relevant guidelines and regulations. C57 BL/6 mice, Sprague Dawley rats, and Beagle dogs were studied.

[6] = as above; type: in vivo, male Sprague Dawley rats; settings: rat, plasma
Experimental: as §1

[7] = 28-day repeat oral dose toxicity study, toxicokinetics; type: in vivo, Beagle dogs; settings: dog
Experimental: as §1

[8] = KH176 10 mg/kg/dose BID oral, F, Day 1, plasma
[9] = KH176 10 mg/kg/dose BID oral, F, Day 28, plasma
[10] = KH176 10 mg/kg/dose BID oral, M, Day 1, plasma
[11] = KH176 10 mg/kg/dose BID oral, M, Day 28, plasma
[12] = KH176 25 mg/kg/dose BID oral, F, Day 1, plasma
[13] = KH176 25 mg/kg/dose BID oral, F, Day 28, plasma
[14] = KH176 25 mg/kg/dose BID oral, M, Day 1, plasma
[15] = KH176 25 mg/kg/dose BID oral, M, Day 28, plasma
[16] = KH176 62.5 mg/kg/dose BID oral, F, Day 1, plasma
[17] = KH176 62.5 mg/kg/dose BID oral, F, Day 28, plasma
[18] = KH176 62.5 mg/kg/dose BID oral, M, Day 1, plasma
[19] = KH176 62.5 mg/kg/dose BID oral, M, Day 28, plasma

Structure (SMILES): CC1=C(C)C(=O)C(CC[C@](C)(O)C(=O)N[C@@H]2CCCNC2)=C(C)C1=O [KH176m]
- IC50 (P4 cell line [1]): 0.25 µM and 0.255 µM
- IC50 [2]: 1.4 µM
- Potency (IC50) of KH176m relative to KH176, lipid peroxidation [3]: about 1000 fold
- IC50 ([3]; bodipy 581/591 C11): 0.071 µM
- GSH level under BSO (P4 cell line [4]): remained unaffected
- Brain to Plasma ratio, range (1–8 hours) ([5]; KH176 2 mg/kg i.v.): b.d.
- Heart to Plasma ratio, range (1–8 hours) ([5]; KH176 2 mg/kg i.v.): 6.1–11.6
- Liver to Plasma ratio, range (1–8 hours) ([5]; KH176 2 mg/kg i.v.): 29.0–57.1
- Skeletal muscle to Plasma ratio, range (1–8 hours) ([5]; KH176 2 mg/kg i.v.): 8.2–20.5
- AUCINF ([5]; KH176 2 mg/kg i.v., plasma): 146.9 ng·h/mL
- AUClast ([5]; KH176 2 mg/kg i.v., plasma): 140.0 ng·h/mL
- T1/2 ([5]; KH176 2 mg/kg i.v., plasma): 0.5 h
- C0 (i.v.) ([5]; KH176 2 mg/kg i.v., plasma, back extrapolated): 359.3 ng/mL
- Brain to Plasma ratio, range (1–8 hours) ([5]; KH176 10 mg/kg p.o.): 0.1–19.6
- Heart to Plasma ratio, range (1–8 hours) ([5]; KH176 10 mg/kg p.o.): 2.1–14.6
- Liver to Plasma ratio, range (1–8 hours) ([5]; KH176 10 mg/kg p.o.): 12.8–94.1
- AUCINF ([5]; KH176 10 mg/kg p.o., plasma): 1260.8 ng·h/mL
- AUClast ([5]; KH176 10 mg/kg p.o., plasma): 1225.2 ng·h/mL
- Cmax (p.o.) ([5]; KH176 10 mg/kg p.o., plasma): 1061.8 ng/mL
- Tmax ([5]; KH176 10 mg/kg p.o., plasma): 0.25 h
- Skeletal muscle to Plasma ratio, range at 1 hour ([5]; KH176 10 mg/kg p.o., no concentrations detected at 8 hours): 4.4–33.8^d
- AUCINF ([6]; KH176 2 mg/kg i.v.): 206.1 ng·h/mL
- AUClast ([6]; KH176 2 mg/kg i.v.): 150.2 ng·h/mL
- T1/2 ([6]; KH176 2 mg/kg i.v.): 2.3 h
- C0 (i.v.) ([6]; KH176 2 mg/kg i.v., back extrapolated): 59.7 ng/mL
- AUCINF ([6]; KH176 10 mg/kg p.o.): 1503.2 ng·h/mL
- AUClast ([6]; KH176 10 mg/kg p.o.): 1441.1 ng·h/mL
- Cmax (p.o.) ([6]; KH176 10 mg/kg p.o.): 396.4 ng/mL
- Tmax ([6]; KH176 10 mg/kg p.o.): 0.5 h
- AUC0–24 h Ratio KH176m/KH176 ([7]; KH176 10 mg/kg/dose BID oral, F, Day 1): 0.864
- AUC0–24 h [7, 8]: 7640 ng·h/mL
- Cmax [7, 8]: 539 ng/mL
- T1/2 [7, 8]: 5.4 h
- AUC0–24 h Ratio KH176m/KH176 ([7]; KH176 10 mg/kg/dose BID oral, F, Day 28): 0.719
- AUC0–24 h [7, 9]: 10500 ng·h/mL
- Cmax [7, 9]: 786 ng/mL
- T1/2 [7, 9]: 4.7 h
- AUC0–24 h Ratio KH176m/KH176 ([7]; KH176 10 mg/kg/dose BID oral, M, Day 1): 0.848
- AUC0–24 h [7, 10]: 13900 ng·h/mL
- Cmax [7, 10]: 946 ng/mL
- T1/2 [7, 10]: 4.7 h
- AUC0–24 h Ratio KH176m/KH176 ([7]; KH176 10 mg/kg/dose BID oral, M, Day 28): 0.668
- AUC0–24 h [7, 11]: 12700 ng·h/mL
- Cmax [7, 11]: 916 ng/mL
- T1/2 [7, 11]: 7.7 h
- AUC0–24 h Ratio KH176m/KH176 ([7]; KH176 25 mg/kg/dose BID oral, F, Day 1): 0.845
- AUC0–24 h [7, 12]: 35400 ng·h/mL
- Cmax [7, 12]: 2200 ng/mL
- AUC0–24 h Ratio KH176m/KH176 ([7]; KH176 25 mg/kg/dose BID oral, F, Day 28): 0.823
- AUC0–24 h [7, 13]: 32900 ng·h/mL
- Cmax [7, 13]: 2170 ng/mL
- AUC0–24 h Ratio KH176m/KH176 ([7]; KH176 25 mg/kg/dose BID oral, M, Day 1): 0.967
- AUC0–24 h [7, 14]: 41200 ng·h/mL
- Cmax [7, 14]: 2610 ng/mL
- T1/2 [7, 14]: 11.1 h
- AUC0–24 h Ratio KH176m/KH176 ([7]; KH176 25 mg/kg/dose BID oral, M, Day 28): 0.970
- AUC0–24 h [7, 15]: 38700 ng·h/mL
- Cmax [7, 15]: 2270 ng/mL
- T1/2 [7, 15]: 14.3 h
- AUC0–24 h Ratio KH176m/KH176 ([7]; KH176 62.5 mg/kg/dose BID oral, F, Day 1): 0.908
- AUC0–24 h [7, 16]: 57300 ng·h/mL
- Cmax [7, 16]: 3550 ng/mL
- T1/2 [7, 16]: 5.3 h
- AUC0–24 h Ratio KH176m/KH176 ([7]; KH176 62.5 mg/kg/dose BID oral, F, Day 28): 0.938
- AUC0–24 h [7, 17]: 80200 ng·h/mL
- Cmax [7, 17]: 4990 ng/mL
- T1/2 [7, 17]: 12.2 h
- AUC0–24 h Ratio KH176m/KH176 ([7]; KH176 62.5 mg/kg/dose BID oral, M, Day 1): 0.743
- AUC0–24 h [7, 18]: 68000 ng·h/mL
- Cmax [7, 18]: 4020 ng/mL
- T1/2 [7, 18]: 12.9 h
- AUC0–24 h Ratio KH176m/KH176 ([7]; KH176 62.5 mg/kg/dose BID oral, M, Day 28): 0.835
- AUC0–24 h [7, 19]: 85200 ng·h/mL
- Cmax [7, 19]: 5250 ng/mL
